Values quoted from earlier work in patent publication US20050267140A1, “Method for treating abnormal cell growth” (priority 2004, published 2005).
Read-outs that look alike come from different tables or passages of the source.

Tested on: previously untreated patients with metastatic colorectal cancer
[1] = capecitabine treatment arms, 2500 mg/m^2/day for 14 days every 3 weeks

Structure (SMILES): CCCCCOC(=O)Nc1nc(=O)n([C@@H]2O[C@H](C)[C@@H](O)[C@H]2O)cc1F [capecitabine, 5′-deoxy-5-fluoro-N-[(pentyloxy)-carbonyl]-cytidine]
- Median survival (European trial (N=602), p=0.30): 13.3 months
- Median survival (US trial (N=605), p=0.24): 12.5 months
- Grade 3-4 diarrhea [1]: 14%
- Grade 3-4 hand-foot syndrome [1]: 17%
- Overall response rate (first of the 2 trials as listed ('respectively'), p=0.014): 21%
- Overall response rate (second of the 2 trials as listed ('respectively'), p=0.03): 21%
